Measurements: US10689399B2, “Substituted 3,4,5,6,8,10,14,14a-octahydro-2h-2,6-methanopyrido[1′,2′:4,5]pyrazino[2,1-b][1,3]oxazocines and methods for treating viral infections” (Gilead Sciences, Inc., priority 2012, dated 2020)

System: HIV-IIIb
Assay: Antiviral assay in MT4 cells
Type: cell-based
Conditions: Human immunodeficiency virus 1, IIIB, MT4, 120 h, MT4 cells infected with HIV-IIIb, 5 days, CellTiter-Glo; read-out: EC50 nM in MT-4
Outline: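 MT4 cells pre-infected with HIV-IIIb (0.004 m.o.i.) at 37 °C, or mock-infected, then seeded at 2000 cells/well onto 3-fold serially diluted compound (10 concentrations, quadruplicate) in RPMI 1640 with 10% FBS. After 5 days at 37 °C, cell viability read by CellTiter-Glo luminescence.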

| Compound | EC50 [nM] |
| --- | --- |
| O=C(NCc1c(Cl)ccc(Cl)c1F)c1cn2c(c(O)c1=O)C(=O)N1[C@H]3CC[C@H](C3)[C@@H]1C2 [Compound 71, (1R,4S,12aR)—N-(3,6-dichloro-2-fluorobenzyl)-7-hydroxy-6,8-dioxo-1,2,3,4,6,8,12,12a-octahydro-1,4-methanodipyrido[1,2-a:1′,2′-d]pyrazine-9-carboxamide] | 2.6 |
| O=C(NCc1cccc(Cl)c1)c1cn2c(c(O)c1=O)C(=O)N1[C@H]3CC[C@H](C3)[C@@H]1C2 [Compound 72, (1R,4S,12aR)—N-(3-chlorobenzyl)-7-hydroxy-6,8-dioxo-1,2,3,4,6,8,12,12a-octahydro-1,4-methanodipyrido[1,2-a:1′,2′-d]pyrazine-9-carboxamide] | 4.3 |
| O=C(NCc1c(F)ccc(Cl)c1F)c1cn2c(c(O)c1=O)C(=O)N1[C@H]3CC[C@H](C3)[C@@H]1C2 [Compound 73, (1R,4S,12aR)—N-(3-chloro-2,6-difluorobenzyl)-7-hydroxy-6,8-dioxo-1,2,3,4,6,8,12,12a-octahydro-1,4-methanodipyrido[1,2-a:1′,2′-d]pyrazine-9-carboxamide] | 1.8 |
| O=C(NCc1cccc(C(F)(F)F)c1F)c1cn2c(c(O)c1=O)C(=O)N1[C@H]3CC[C@H](C3)[C@@H]1C2 [Compound 74, (1R,4S,12aR)—N-(2-fluoro-3-(trifluoromethyl)benzyl)-7-hydroxy-6,8-dioxo-1,2,3,4,6,8,12,12a-octahydro-1,4-methanodipyrido[1,2-a:1′,2′-d]pyrazine-9-carboxamide] | 29.3 |
| O=C(NCc1ccc(F)c(Cl)c1)c1cn2c(c(O)c1=O)C(=O)N1[C@H]3CC[C@H](C3)[C@@H]1C2 [Compound 75, (1R,4S,12aR)—N-(3-chloro-4-fluorobenzyl)-7-hydroxy-6,8-dioxo-1,2,3,4,6,8,12,12a-octahydro-1,4-methanodipyrido[1,2-a:1′,2′-d]pyrazine-9-carboxamide] | 2.8 |
| O=C(NCc1ncc(F)cc1F)c1cn2c(c(O)c1=O)C(=O)N1[C@H]3CC[C@H](C3)[C@@H]1C2 [Compound 76, (1R,4S,12aR)—N-((3,5-difluoropyridin-2-yl)methyl)-7-hydroxy-6,8-dioxo-1,2,3,4,6,8,12,12a-octahydro-1,4-methanodipyrido[1,2-a:1′,2′-d]pyrazine-9-carboxamide] | 17.8 |
| C[C@@H](NC(=O)c1cn2c(c(O)c1=O)C(=O)N1[C@H]3CC[C@H](C3)[C@@H]1C2)c1c(F)cc(F)cc1F [Compound 77, (1R,4 S,12aR)-7-hydroxy-6,8-dioxo-N—((R)-1-(2,4,6-trifluorophenyl)ethyl)-1,2,3,4,6,8,12,12a-octahydro-1,4-methanodipyrido[1,2-a:1′,2′-d]pyrazine-9-carboxamide] | 5.6 |
| C[C@@H](NC(=O)c1cn2c(c(O)c1=O)C(=O)N1[C@@H]3CC[C@H](C3)O[C@@H]1C2)c1c(F)cc(F)cc1F [Compound 78, (2R,13aR)-8-hydroxy-7,9-dioxo-N—((R)-1-(2,4,6-trifluorophenyl)ethyl)-2,3,4,5,7,9,13,13a-octahydro-2,5-methanopyrido[1%2′: 4,5]pyrazino[2,1-b][1,3]oxazepine-10-carboxamide] | 5.6 |
| O=C(NCc1cc(F)c(F)cc1F)c1cn2c(c(O)c1=O)C(=O)N1[C@H]3CC[C@H](C3)[C@@H]1C2 [Compound 79, (1R,4S,12aR)-7-hydroxy-6,8-dioxo-N-(2,4,5-trifluorobenzyl)-1,2,3,4,6,8,12,12a-octahydro-1,4-methanodipyrido[1,2-a:1′,2′-d]pyrazine-9-carboxamide] | 3.4 |
| O=C(NCc1cc(Cl)c(F)cc1F)c1cn2c(c(O)c1=O)C(=O)N1[C@H]3CC[C@H](C3)[C@@H]1C2 [Compound 80, (1R,4S,12aR)—N-(5-chloro-2,4-difluorobenzyl)-7-hydroxy-6,8-dioxo-1,2,3,4,6,8,12,12a-octahydro-1,4-methanodipyrido[1,2-a:1′,2′-d]pyrazine-9-carboxamide] | 4.6 |
| O=C(NCc1c(F)cc(F)cc1F)c1cn2c(c(O)c1=O)C(=O)N1[C@H](C2)[C@H]2C[C@H](F)[C@@H]1C2 [Compound 81, (1R,3S,4S,12aS)-3-fluoro-7-hydroxy-6,8-dioxo-N-(2,4,6-trifluorobenzyl)-1,2,3,4,6,8,12,12a-octahydro-1,4-methanodipyrido[1,2-a:1′,2′-d]pyrazine-9-carboxamide] | 1.9 |
| O=C(NCc1c(F)cc(F)cc1F)c1cn2c(c(O)c1=O)C(=O)N1[C@@H]3C[C@@H](C[C@H]3F)[C@@H]1C2 [Compound 82, (1S,3R,4R,12aR)-3-fluoro-7-hydroxy-6,8-dioxo-N-(2,4,6-trifluorobenzyl)-1,2,3,4,6,8,12,12a-octahydro-1,4-methanodipyrido[1,2-a:1′,2′-d]pyrazine-9-carboxamide] | 2.9 |
| O=C(NCc1c(F)cc(F)cc1F)c1cn2c(c(O)c1=O)C(=O)N1[C@H](C2)[C@H]2C[C@@H]1C(F)(F)C2 [Compound 83, (1S,4R,12aS)-3,3-di fluoro-7-hydroxy-6,8-dioxo-N-(2,4,6-trifluorobenzyl)-1,2,3,4,6,8,12,12a-octahydro-1,4-methanodipyrido[1,2-a:1′,2′-d]pyrazine-9-carboxamide] | 1.9 |
| C[C@@H]1C[C@H]2C[C@@H]1[C@@H]1Cn3cc(C(=O)NCc4c(F)cc(F)cc4F)c(=O)c(O)c3C(=O)N21 [Compound 84, (1S,2R,4 S,12aR)-7-hydroxy-2-methyl-6,8-dioxo-N-(2,4,6-trifluorobenzyl)-1,2,3,4,6,8,12,12a-octahydro-1,4-methanodipyrido[1,2-a:1′,2′-d]pyrazine-9-carboxamide] | 2.9 |
| O=C(NCc1c(F)cc(F)cc1F)c1cn2c(c(O)c1=O)C(=O)N1[C@H]3CCC[C@H](C3)[C@H]1C2 [Compound 85, (6 aS,7R,11S)-1-hydroxy-2,13-dioxo-N-(2,4,6-trifluorobenzyl)-6,6a,7,8,9,10,11,13-octahydro-2H-7,11-methanopyrido[1′,2′: 4,5]pyrazino[1,2-a]azepine-3-carboxamide] | 2 |
| C[C@H]1C[C@@H]2C[C@H]1N1C(=O)c3c(O)c(=O)c(C(=O)NCc4c(F)cc(F)cc4F)cn3C[C@H]21 [Compound 86, (1R,3S,4R,12aS)-7-hydroxy-3-methyl-6,8-dioxo-N-(2,4,6-trifluorobenzyl)-1,2,3,4,6,8,12,12a-octahydro-1,4-methanodipyrido[1,2-a:1′,2′-d]pyrazine-9-carboxamide] | 2.3 |
| O=C(NCc1cccc(Cl)c1F)c1cn2c(c(O)c1=O)C(=O)N1[C@H]3CC[C@H](C3)O[C@@H]1C2 [Compound 88, (2R,5S,13aR)—N-(3-chloro-2-fluorobenzyl)-8-hydroxy-7,9-dioxo-2,3,4,5,7,9,13,13a-octahydro-2,5-methanopyrido[1′,2′:4,5]pyrazino[2,1-b][1,3]oxazepine-10-carboxamide] | 2.9 |
| O=C(NCc1cc(F)ccc1F)c1cn2c(c(O)c1=O)C(=O)N1[C@H]3CC[C@H](C3)O[C@@H]1C2 [Compound 89, (2R,5S,13aR)—N-(2,5-difluorobenzyl)-8-hydroxy-7,9-dioxo-2,3,4,5,7,9,13,13a-octahydro-2,5-methanopyrido[1′,2′:4,5]pyrazino[2,1-b][1,3]oxazepine-10-carboxamide] | 8.4 |
| O=C(NCc1cccc(Cl)c1F)c1cn2c(c(O)c1=O)C(=O)N1[C@H]3CC[C@H](C3)[C@@H]1C2 [Compound 90, (1R,4S,12aR)—N-(3-chloro-2-fluorobenzyl)-7-hydroxy-6,8-dioxo-1,2,3,4,6,8,12,12a-octahydro-1,4-methanodipyrido[1,2-a:1′,2′-d]pyrazine-9-carboxamide] | 5.7 |
| O=C(NCc1ccc(F)c(F)c1F)c1cn2c(c(O)c1=O)C(=O)N1[C@H]3CC[C@H](C3)[C@@H]1C2 [Compound 91, (1R,4S,12aR)-7-hydroxy-6,8-dioxo-N-(2,3,4-trifluorobenzyl)-1,2,3,4,6,8,12,12a-octahydro-1,4-methanodipyrido[1,2-a:1′,2′-d]pyrazine-9-carboxamide] | 5 |
| O=C(NCc1ccc(Cl)cc1F)c1cn2c(c(O)c1=O)C(=O)N1[C@H]3CC[C@H](C3)[C@@H]1C2 [Compound 92, (1R,4S,12aR)—N-(4-chloro-2-fluorobenzyl)-7-hydroxy-6,8-dioxo-1,2,3,4,6,8,12,12a-octahydro-1,4-methanodipyrido[1,2-a:1′,2′-d]pyrazine-9-carboxamide] | 18.6 |
| O=C(NCc1c(F)cc(F)cc1Cl)c1cn2c(c(O)c1=O)C(=O)N1[C@H]3CC[C@H](C3)[C@@H]1C2 [Compound 93, (1R,4S,12aR)—N-(2-chloro-4,6-difluorobenzyl)-7-hydroxy-6,8-dioxo-1,2,3,4,6,8,12,12a-octahydro-1,4-methanodipyrido[1,2-a:1′,2′-d]pyrazine-9-carboxamide] | 2.2 |
| O=C(NCc1ccccc1)c1cn2c(c(O)c1=O)C(=O)N1[C@H]3CC[C@H](C3)[C@@H]1C2 [Compound 94, (1R,4S,12aR)—N-benzyl-7-hydroxy-6,8-dioxo-1,2,3,4,6,8,12,12a-octahydro-1,4-methanodipyrido[1,2-a:1′,2′-d]pyrazine-9-carboxamide] | 11.5 |
| O=C(NCc1c(F)cc(F)cc1F)c1cn2c(c(O)c1=O)C(=O)N1[C@@H](C2)[C@H]2C[C@@H]1C(F)(F)C2 [Compound 98, (1S,4R,12aR)-3,3-difluoro-7-hydroxy-6,8-dioxo-N-(2,4,6-trifluorobenzyl)-1,2,3,4,6,8,12,12a-octahydro-1,4-methanodipyrido[1,2-a:1′,2′-d]pyrazine-9-carboxamide] | 2.4 |
| C[C@H]1C[C@@H]2C[C@H]1N1C(=O)c3c(O)c(=O)c(C(=O)NCc4c(F)cc(F)cc4F)cn3C[C@@H]21 [Compound 99, (1R,3S,4R,12aR)-7-hydroxy-3-methyl-6,8-dioxo-N-(2,4,6-trifluorobenzyl)-1,2,3,4,6,8,12,12a-octahydro-1,4-methanodipyrido[1,2-a:1′,2′-d]pyrazine-9-carboxamide] | 2 |
